What was measured:
[1] = target: bovine carbonic anhydrase-II (bCA-II) (Bos taurus, UniProt P00921); assay: In-vitro bCA-II inhibition, spectrophotometric p-nitrophenyl acetate assay; assay type: biochemical; details: for IC50 / IC50 ± SEM: NA = Not active
Experimental: Each inhibitory well-consisted of 140 μL of HEPES-Tris buffer solution, 20 μL of bCA-II enzyme solution (0.1 mg/mL HEPES-Tris buffer), and 20 μL of test compound in HPLC grade DMSO (maintain 10% of the final concentration). […] Substrate p-nitrophenyl acetate (p-NPA) (0.7 mM) was prepared in HPLC grade methanol and the reaction was started by adding 20 μL to a well in a 96-well-plate. The amount of product formed was measured for 30 min continuously at 1 min intervals at 400 nm in a 96-well-plate using xMARK microplate spectrophotometer, Bio-Rad (USA). The activity of the controlled compound was taken as 100%. All experiments were carried out in triplicates of each used concentration, and results are represented as a mean of the triplicate.

[2] = target: human carbonic anhydrase-II (hCA-II) (Homo sapiens, UniProt P00918); assay: In-vitro hCA-II inhibition, spectrophotometric p-nitrophenyl acetate assay; assay type: biochemical; details: for IC50: NA = Not active; for selectivity hCA-II versus bCA-II: from in-vitro results on bCA-II and hCA-II
[3] = target: bCA-II (Bos taurus, UniProt P00921); assay: Kinetics study on bCA-II (Lineweaver-Burk, secondary replot, Dixon plot); assay type: biochemical, bovine
Experimental: (§1) To investigate the mechanism of action of these compounds, kinetics studies were performed. The kinetics studies were used to discover the type of inhibition and dissociation constant (Ki). […] From the kinetics studies, it was deduced that the compound 4d is a competitive inhibitor for both bCA-II and hCA-II. The Lineweaver-Burk plots were used for determination of the type of inhibition, in which the reciprocal of substrate concentrations was plotted against the reciprocal of the rate of the reaction to monitor the effect of the inhibitor on both Km and Vmax. […] In competitive inhibition, the Km of enzyme increased, while Vmax are not affected.
(§2) Figure 2 The mode of inhibition of bCA-II by compound 4d. […] (B) Secondary re-plot of Lineweaver–Burk plot between the slopes of each line on Lineweaver–Burk plot vs. different concentrations of compound 4d. (C) Dixon plot of reciprocal rate of reaction (velocities) vs. different concentrations of compound 4d.
(§3) The Ki values of compounds 4d for both enzymes bCA-II and hCA-II were deduced by secondary replots of Lineweaver-Burk plots by plotting the slope of each line in the Lineweaver-Burk plots against different concentrations of compound 4d (Figures 2B, 3B). The Ki values were confirmed by Dixon plot after plotting the reciprocal of the rate of reaction against different concentrations of compound 4d (Figures 2C, 3C).

[4] = target: hCA-II (Homo sapiens, UniProt P00918); assay: Kinetics study on hCA-II (Lineweaver-Burk, secondary replot, Dixon plot); assay type: biochemical
Experimental: as §1
as §2, with “3” for “2”, “hCA-II” for “bCA-II”
as §3

[5] = substrate p-nitrophenyl acetate

Chain of bovine carbonic anhydrase-II (bCA-II) (P00921 whole entry): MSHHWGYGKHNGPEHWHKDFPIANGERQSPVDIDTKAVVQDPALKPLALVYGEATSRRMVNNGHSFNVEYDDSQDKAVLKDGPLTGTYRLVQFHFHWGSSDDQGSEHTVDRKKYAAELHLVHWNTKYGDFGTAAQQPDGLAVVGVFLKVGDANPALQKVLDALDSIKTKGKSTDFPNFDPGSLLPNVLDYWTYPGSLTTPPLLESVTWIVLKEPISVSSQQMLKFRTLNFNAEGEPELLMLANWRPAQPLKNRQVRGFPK
Chain of bCA-II (P00921 whole entry): as above

Molecule | % Inhibition (0.5 mM) ([1]; 0.5 mM) | IC50 [1] | % Inhibition (0.5 mM) ([2]; hCA-II, 0.5 mM) | inhibition at 500 µM ([1]; 0.5 mM) | inhibition at 500 µM ([2]; hCA-II, 0.5 mM) | IC50 ([2]; hCA-II) | melting point | mode of inhibition ([3]; Lineweaver-Burk plot) | Ki [3, 5] | mode of inhibition ([4]; Lineweaver-Burk plot) | Ki [4, 5] | selectivity hCA-II versus bCA-II [2] | IC50 ± SEM [1]
3-Amino-2-(Napthalen-1-yl) Quinazolin-4(3H)-one [Compound 4b] | 83.6% | 67.3 ± 0.42 µM | 38.1% | – | – | – | – | – | – | – | – | – | –
Nn1c(-c2ccccc2)nc2ccccc2c1=O [Compound 4a, 3-Amino-2-Phenylquinazolin-4(3H)-one] | – | 53.6 ± 0.85 µM | – | 75.2% | 75.2% | 59.6 ± 1.03 µM | 200 to 202 °C | – | – | – | – | – | –
Nn1c(-c2ccccc2[N+](=O)[O-])nc2ccccc2c1=O [Compound 4c, 3-Amino-2-(2-Nitrophenyl) Quinazolin-4(3H)-one] | – | 11.7 ± 0.36 µM | – | 80.5% | 88.5% | 21.1 ± 1.36 µM | 180 to 182 °C | – | – | – | – | – | –
Nn1c(-c2cccc([N+](=O)[O-])c2)nc2ccccc2c1=O [Compound 4d, 3-Amino-2-(3-Nitrophenyl) Quinazolin-4(3H)-one] | – | 19.7 ± 1.02 µM | – | 92.9% | 94.2% | 21.5 ± 0.52 µM | 206 to 208 °C | competitive | 13 ± 0.013 µM | competitive | 14.25 ± 0.017 µM | – | –
Nn1c(-c2ccc([N+](=O)[O-])cc2)nc2ccccc2c1=O [Compound 4e, 3-Amino-2-(4-nitrophenyl) quinazolin-4(3H)-one] | – | 9.1 ± 0.21 µM | – | 80.7% | 92.7% | 39.9 ± 2.21 µM | 224 to 225 °C | – | – | – | – | – | –
Nn1c(-c2ccccc2Br)nc2ccccc2c1=O [Compound 4f, 3-Amino-2-(2-Bromophenyl) Quinazolin-4(3H)-one] | – | 17.9 ± 0.56 µM | – | 88.9% | 98.9% | 43.5 ± 1.51 µM | 204 to 206 °C | – | – | – | – | – | –
Nn1c(-c2ccc(Br)cc2)nc2ccccc2c1=O [Compound 4g, 3-Amino-2-(4-Bromophenyl) Quinazolin-4(3H)-one] | – | 33.6 ± 0.22 µM | – | 85.3% | 85.3% | 14 ± 0.6 µM | 184 to 185 °C | – | – | – | – | more selective inhibitors for hCA-II | –
Cc1ccc(-c2nc3ccccc3c(=O)n2N)cc1 [Compound 4h, 3-Amino-2-(4-Methylphenyl) Quinazolin-4(3H)-one] | – | 38 ± 0.62 µM | – | 92.4% | 92.4% | 53 ± 2.12 µM | 294 to 296 °C | – | – | – | – | – | –
Nn1c(-c2ccccc2F)nc2ccccc2c1=O [Compound 4i, 3-Amino-2-(2-Fluorophenyl) Quinazolin-4(3H)-one] | – | – | – | 17.6% | 27.8% | – | 169 to 170 °C | – | – | – | – | – | inactive
Nn1c(-c2cccc(F)c2)nc2ccccc2c1=O [Compound 4j, 3-Amino-2-(3-Fluorophenyl) Quinazolin-4(3H)-one] | – | 46.6 ± 0.39 µM | – | 78.6% | 28.1% | – | 164 to 165 °C | – | – | – | – | – | –
Nn1c(-c2ccc(F)cc2)nc2ccccc2c1=O [Compound 4k, 3-Amino-2-(4-Fluorophenyl) Quinazolin-4(3H)-one] | – | 18.3 ± 0.51 µM | – | 76.3% | 36.2% | – | 176 to 178 °C | – | – | – | – | – | –
Nn1c(-c2ccccc2Cl)nc2ccccc2c1=O [Compound 4l, 3-Amino-2-(2-Chlorophenyl) Quinazolin-4(3H)-one] | – | 10.7 ± 0.82 µM | – | 78.2% | 28.7% | – | 160 to 162 °C | – | – | – | – | – | –
Nn1c(-c2cccc(Cl)c2)nc2ccccc2c1=O [Compound 4m, 3-Amino-2-(3-Chlorophenyl) Quinazolin-4(3H)-one] | – | 8.9 ± 0.31 µM | – | 60% | 30.5% | – | 144 to 145 °C | – | – | – | – | – | –
Nn1c(-c2ccc(Cl)cc2)nc2ccccc2c1=O [Compound 4n, 3-Amino-2-(4-Chlorophenyl) Quinazolin-4(3H)-one] | – | 28.2 ± 0.01 µM | – | 54.2% | 24.3% | – | 165 to 166 °C | – | – | – | – | – | –
COc1ccc(-c2nc3ccccc3c(=O)n2N)cc1 [Compound 4o, 3-Amino-2-(4-Methoxyphenyl) Quinazolin-4(3H)-one] | – | – | – | 19.9% | 89.4% | 22 ± 0.4 µM | – | – | – | – | – | more selective inhibitors for hCA-II | inactive
COc1cc(-c2nc3ccccc3c(=O)n2N)cc(OC)c1OC [Compound 4p, 3-Amino-2-(3,4,5-Trimethoxyphenyl) Quinazolin-4(3H)-one] | – | 26.8 ± 0.23 µM | – | 87.3% | 27.4% | – | – | – | – | – | – | – | –
